Data on 18 compounds can be found in US20260109721A1, “IONIZABLE CATIONIC LIPIDS INCORPORATING SILICON: SYNTHESIS AND LNP FORMULATION” (priority 2023, published 2026).

Molecules are shown by their SMILES.

The first data set can be described thus: Encapsulation efficiency of loaded LNPs, RiboGreen RNA assay (Method A). In kind it is physicochemical.
Conditions: not given
How it is done:
The synthesized lipids were tested in term of in vitro transfection efficacy and toxicity on HeLa cells. In order to perform the mentioned biological tests, appropriate LNPs had to be formulated from the synthesized lipids. The formulation technique was different in Method A and B. The particle size, polydispersity index (PDI) and zeta potential of resulting LNPs were determined by means of Dynamic Light Scattering technique (DLS). Prior to biological testing the encapsulation efficiency (EE) of the loaded LNPs was determined by using RiboGreen RNA assay. In case of Method A Luc mRNA while in case of Method B GFP mRNA was transfected into the cells. In parallel with the transfection experiments, toxicity of the investigated LNPs was determined, in case of Method A resazurin assay while in case of Method B MTT assay was used. Additionally, the toxicity of the lipids was investigated on HepG2 cells and IC50 values were determined.
• 1. Preparation of sample stock solutions: In the top row of the 96-well plate (Row A in the plate), add 297 μL of TE buffer pH 7.4 (see Table 1) to a single well for each sample plus a single well for a PBS blank using a multichannel pipette.
• 2. Add 3 μL of sample (at 0.5 mg/ml) to these wells for a final volume of 300 μL. Add 3 μL of PBS to the blank well. Pipette to mix. This is your stock solution for each sample. The final RNA concentration of these stock solutions should be approximately 4-7 μg/mL. • 3. mRNA-LNP sample setup: • a. Add 50 μL of TE buffer pH 7.5 to the two wells directly below each sample (Rows B and C in the plate). • b. Add 50 μL of sample stock solution from Row A into the wells in Rows B and C (this assay is run in duplicate. All liquid handling should be done using a multichannel pipette). • c. Add 50 μL of Triton buffer to the wells in Rows D and E (in the plate) below each sample. • d. Add 50 μL of sample stock solution from Row A into the wells in Rows D and E. • 4. RiboGreen RNA standard curve setup: Dilute the RNA standard to produce an RNA stock at a final concentration of 20 μg/mL in TE buffer pH 7.4. The final volume should be 150 μL. Set up a standard curve (in duplicate) as using the RNA stock (20 μg/mL siRNA), TE buffer pH 7.5, and Triton X-100 buffer according the Table 2 and Table 3 below.
• 5. Once samples and standard curve are plated, incubate the plate at 37° C. for 10 min to lyse mRNA-LNP in the presence of Triton X-100 buffer. • 6. Meanwhile, prepare RiboGreen Solution: Sum the total number of sample wells and standard curve wells. Add three to this number, and multiply the total by 100. This is the total volume, in μL, of RiboGreen Solution needed for this assay. In a 15 mL RNAse-free Falcon tube, dilute the RiboGreen Reagent 1:100 into TE buffer pH 7.5 to the total volume calculated. • 7. Addition of RiboGreen Solution and sample readings: Remove a 96-well plate from 37° C. incubator; let it cool to room temperature as RiboGreen binding is somewhat temperature dependent. Add 100 μL of RiboGreen Solution to each well. Pop any air bubbles with a needle. Read using fluorescent plate reader (excitation=480, emission=525). • 8. Sample analysis: Use the data generated by the RiboGreen standard curve to calculate the concentration of mRNA. Transfection Efficiency with Luciferase-mRNA (Method A)
Take `CCCCC/C=C\C/C=C\CCCCCCCCOC(CCCCCCC/C=C\C/C=C\CCCCC)O[Si](C)(C)OCCCCCCN(C)C` (stereo not drawn) [Example 79, (20Z,23Z)-10-((8Z,11Z)-heptadeca-8,11-dien-1-yl)-N,N,8,8-tetramethyl-7,9,11-trioxa-8-silanonacosa-20,23-dien-1-amine]: the “EE (%)” value came out at 83%. As to `CCCCC/C=C\C/C=C\CCCCCCCCO[Si](C)(C)OC(CCCCCCC/C=C\C/C=C\CCCCC)OCCCN(C)C` (stereo not drawn) [Example 80, (17Z,20Z)-5-((8Z,11Z)-heptadeca-8,11-dien-1-yl)-N,N,7,7-tetramethyl-4,6,8-trioxa-7-silahexacosa-17,20-dien-1-amine], the “EE (%)” value turned out to be 83%. The same measure, in the same setting: the figure for `CCCCC/C=C\C/C=C\CCCCCCCCO[Si](C)(C)OC(CCCCCCC/C=C\CCCCCCCC)OCCCN(C)C` (stereo not drawn) [Example 81, (17Z,20Z)-5-((Z)-heptadec-8-en-1-yl)-N,N,7,7-tetramethyl-4,6,8-trioxa-7-silahexacosa-17,20-dien-1-amine] is 86%.

The same data set, now with this note: encapsulation efficiency of mRNA-loaded LNP, Method A, RiboGreen.
As to `C#CCN(C)CCCCCCO[Si](C)(C)OC(CCCCCCC/C=C\C/C=C\CCCCC)OCCCCCCCC/C=C\C/C=C\CCCCC` (stereo not drawn) [Example 67, (20Z,23Z)-10-((8Z,11Z)-heptadeca-8,11-dien-1-yl)-N,8,8-trimethyl-N-(prop-2-yn-1-yl)-7,9,11-trioxa-8-silanonacosa-20,23-dien-1-amine], the “EE (%)” value stood at 88%. Still for that read-out and setting: the figure for `CCCCC/C=C\C/C=C\CCCCCCCCOC(CCCCCCC/C=C\C/C=C\CCCCC)O[Si](C)(C)OCCCCCCN(C)Cc1cn(C2[C@H](O)O[C@H](CO)[C@@H](O)[C@@H]2O)nn1` (stereo partly drawn) [Example 68, (4R,5S,6R)-3-(4-((22Z,25Z)-12-((8Z,11Z)-heptadeca-8,11-dien-1-yl)-2,10,10-trimethyl-9,11,13-trioxa-2-aza-10-silahentriaconta-22,25-dien-1-yl)-1H-1,2,3-triazol-1-yl)-6-(hydroxymethyl)tetrahydro-2H-pyran-2,4,5-triol] is 88%; for `CCCCC/C=C\C/C=C\CCCCCCCCOC(CCCCCCC/C=C\C/C=C\CCCCC)O[Si](C)(C)OCCCCCCN1CCN(CCCCCCO[Si](C)(C)OC(CCCCCCC/C=C\C/C=C\CCCCC)OCCCCCCCC/C=C\C/C=C\CCCCC)CC1` (stereo not drawn) [Example 70, 1,4-bis((20Z,23Z)-10-((8Z,11Z)-heptadeca-8,11-dien-1-yl)-8,8-dimethyl-7,9,11-trioxa-8-silanonacosa-20,23-dien-1-yl)piperazine] it is 81%; for `CCCCC/C=C\C/C=C\CCCCCCCCOC(CCCCCCC/C=C\C/C=C\CCCCC)O[Si](C)(C)OCCCCCCN(CCO)CCN(CCO)CCCCCCO[Si](C)(C)OC(CCCCCCC/C=C\C/C=C\CCCCC)OCCCCCCCC/C=C\C/C=C\CCCCC` (stereo not drawn) [Example 71, (26Z,29Z)-16-((8Z,11Z)-heptadeca-8,11-dien-1-yl)-3-((20Z,23Z)-10-((8Z,11Z)-heptadeca-8,11-dien-1-yl)-8,8-dimethyl-7,9,11-trioxa-8-silanonacosa-20,23-dien-1-yl)-6-(2-hydroxyethyl)-14,14-dimethyl-13,15,17-trioxa-3,6-diaza-14-silapentatriaconta-26,29-dien-1-ol] it is 84%.

`CCCCCCCC/C=C\CCCCCCCC(OCC(CCCCCCCC)SCCCCC)O[Si](C)(C)OCCCCCCN(CCO)CCO` (stereo not drawn) [Example 72, (Z)-13-(heptadec-8-en-1-yl)-3-(2-hydroxyethyl)-11,11-dimethyl-16-octyl-10,12,14-trioxa-17-thia-3-aza-11-siladocosan-1-ol]: the “EE (%)” value is 87%. The same measure, in the same setting: in the case of `CCCCCCCC/C=C\CCCCCCCC(OCC(CCCCCCCC)SCCCCCCCCCC)O[Si](C)(C)OCCCCCCN(CCO)CCO` (stereo not drawn) [Example 73, (Z)-13-(heptadec-8-en-1-yl)-3-(2-hydroxyethyl)-11,11-dimethyl-16-octyl-10,12,14-trioxa-17-thia-3-aza-11-silaheptacosan-1-ol] it was 87%; in that of `CCCCCCCC/C=C\CCCCCCCC(OCCCCCCCCCCCC1CCCCC1)O[Si](C)(C)OCCCCCCN(CCO)CCO` (stereo not drawn) [Example 74, (Z)-25-cyclohexyl-13-(heptadec-8-en-1-yl)-3-(2-hydroxyethyl)-11,11-dimethyl-10,12,14-trioxa-3-aza-11-silapentacosan-1-ol], 87%; in that of `CCCCCCCC/C=C\CCCCCCCC(OCCC(C)CCCC(C)CCCC(C)CCCC(C)C)O[Si](C)(C)OCCCCCCN(CCO)CCO` (stereo not drawn) [Example 75, (Z)-13-(heptadec-8-en-1-yl)-3-(2-hydroxyethyl)-11,11,17,21,25,29-hexamethyl-10,12,14-trioxa-3-aza-11-silatriacontan-1-ol], 89%. On the same count and under the same terms, the figure for `CCCCCCCC/C=C\CCCCCCCC(OCCCCCCCCCCCCCCC(C)C)O[Si](C)(C)OCCCCCCN(CCO)CCO` (stereo not drawn) [Example 76, (Z)-13-(heptadec-8-en-1-yl)-3-(2-hydroxyethyl)-11,11,29-trimethyl-10,12,14-trioxa-3-aza-11-silatriacontan-1-ol] is 80%. Still for that read-out and setting: the figure for `CCCCC/C=C\C/C=C\CCCCCCCCOC(CCCCCCC/C=C\C/C=C\CCCCC)O[Si](C)(C)OCCCCCCN(C)[C@H](CO)Cc1ccccc1` (stereo partly drawn) [Example 77, (2S,23Z,26Z)-2-benzyl-13-((8Z,11Z)-heptadeca-8,11-dien-1-yl)-3,11,11-trimethyl-10,12,14-trioxa-3-aza-11-siladotriaconta-23,26-dien-1-ol] is 85%; for `CCCCCCCC/C=C\CCCCCCCCOC(CCCCCCC/C=C\CCCCCCCC)O[Si](C)(C)OCCCCCCN(C)[C@H](CO)Cc1ccccc1` (stereo partly drawn) [Example 78, (2S,Z)-2-benzyl-13-((Z)-heptadec-8-en-1-yl)-3,11,11-trimethyl-10,12,14-trioxa-3-aza-11-siladotriacont-23-en-1-ol] it is 87%; for `CCCCC/C=C\C/C=C\CCCCCCCCOC(CCCCCCC/C=C\C/C=C\CCCCC)O[Si](C)(C)O[Si](C)(C)CCCCCCN(CCO)CCO` (stereo not drawn) [Example 82, (24Z,27Z)-14-((8Z,11Z)-heptadeca-8,11-dien-1-yl)-3-(2-hydroxyethyl)-10,10,12,12-tetramethyl-11,13,15-trioxa-3-aza-10,12-disilatritriaconta-24,27-dien-1-ol] it is 80%. In the case of `CCCCCCCC/C=C\CCCCCCCCOC(=O)C(C)(C)CC(OCCCCCCCC/C=C\CCCCCCCC)O[Si](C)(C)OCCCCCCN(CCO)CCO` (stereo not drawn) [Example 84, (Z)-octadec-9-en-1-yl 1-hydroxy-3-(2-hydroxyethyl)-11,11,15,15-tetramethyl-13-(((Z)-octadec-9-en-1-yl)oxy)-10,12-dioxa-3-aza-11-silahexadecan-16-oate], the “EE (%)” value is reported as 90%. Still for that read-out and setting: in the case of `CCCCCCCC/C=C\CCCCCCCCOC(=O)C(C)(C)CC(OCCCCCCCC/C=C\CCCCCCCC)O[Si](C)(C)OCCCCCCN1CCOCC1` (stereo not drawn) [Example 85, (Z)-octadec-9-en-1-yl 4-((dimethyl((6-morpholinohexyl)oxy)silyl)oxy)-2,2-dimethyl-4-(((Z)-octadec-9-en-1-yl)oxy)butanoate] it was 90%; in that of `CCCCCCCC/C=C\CCCCCCCCOC(=O)C(C)(C)CC(OCCCCCCCC/C=C\CCCCCCCC)O[Si](C)(C)OCCCCCCN(CCCCO)CCCCO` (stereo not drawn) [Example 86, (Z)-octadec-9-en-1-yl 18-hydroxy-14-(4-hydroxybutyl)-2,2,6,6-tetramethyl-4-(((Z)-octadec-9-en-1-yl)oxy)-5,7-dioxa-14-aza-6-silaoctadecanoate], 87%.
